The text below walks through data of patent US10323043B2, “Derivatives of macrocyclic N-aryl-tricyclopyrimidine-2-amine polyethers as inhibitors of FTL3 and JAK” (PIERRE FABRE MEDICAMENT, priority 2014, dated 2019).

The term EC50 denotes the concentration needed to bring the measured effect to its halfway point. In general, IC50 refers to the concentration that inhibits the measured activity by half.

Experiment [1] relates to MOLM-13 cell line. The experiment in a line: Antiproliferative activity (ATPLite cell viability), MOLM-13. The experiment is classed as cell-based. The conditions noted are these: Homo sapiens, MOLM-13 (acute myeloid leukemia, FLT3-ITD), 72 h incubation, read-out: Cytotoxicity (EC50) on MOLM13 cell line. The protocol:
The characteristics of the cell lines used are as follows (Table 2):
MV4-11 and MOLM-13 cell lines are cultured in the culture medium specified in Table 2 above and according to the supplier's recommendations. The tests are carried out in 96-well plates. The cells are divided in two at D0. At D1, they are seeded and treated with the compounds at various concentrations and incubated for 72 h at 37° C. and 5% CO2. The dilution of the compounds from stock solutions in DMSO (Sigma, #D8418) was made semi-logarithmically for a final concentration in the culture medium of 0.1%. At day 4, cell viability is evaluated by assaying the ATP released by the living cells using the ATPLite® kit (Perkin Elmer, #6016947). The EC50 values (concentration of the compound necessary to obtain 50% of the maximum effect) are calculated using curve-fitting software.
(In ATP-based viability assays light output follows the ATP content of the culture.)

Experiment [2] addresses T1, JAK3 (Homo sapiens, UniProt P52333).
T1 construct: purchased Life Technologies PV3855
T1 sequence (P52333 1-1124): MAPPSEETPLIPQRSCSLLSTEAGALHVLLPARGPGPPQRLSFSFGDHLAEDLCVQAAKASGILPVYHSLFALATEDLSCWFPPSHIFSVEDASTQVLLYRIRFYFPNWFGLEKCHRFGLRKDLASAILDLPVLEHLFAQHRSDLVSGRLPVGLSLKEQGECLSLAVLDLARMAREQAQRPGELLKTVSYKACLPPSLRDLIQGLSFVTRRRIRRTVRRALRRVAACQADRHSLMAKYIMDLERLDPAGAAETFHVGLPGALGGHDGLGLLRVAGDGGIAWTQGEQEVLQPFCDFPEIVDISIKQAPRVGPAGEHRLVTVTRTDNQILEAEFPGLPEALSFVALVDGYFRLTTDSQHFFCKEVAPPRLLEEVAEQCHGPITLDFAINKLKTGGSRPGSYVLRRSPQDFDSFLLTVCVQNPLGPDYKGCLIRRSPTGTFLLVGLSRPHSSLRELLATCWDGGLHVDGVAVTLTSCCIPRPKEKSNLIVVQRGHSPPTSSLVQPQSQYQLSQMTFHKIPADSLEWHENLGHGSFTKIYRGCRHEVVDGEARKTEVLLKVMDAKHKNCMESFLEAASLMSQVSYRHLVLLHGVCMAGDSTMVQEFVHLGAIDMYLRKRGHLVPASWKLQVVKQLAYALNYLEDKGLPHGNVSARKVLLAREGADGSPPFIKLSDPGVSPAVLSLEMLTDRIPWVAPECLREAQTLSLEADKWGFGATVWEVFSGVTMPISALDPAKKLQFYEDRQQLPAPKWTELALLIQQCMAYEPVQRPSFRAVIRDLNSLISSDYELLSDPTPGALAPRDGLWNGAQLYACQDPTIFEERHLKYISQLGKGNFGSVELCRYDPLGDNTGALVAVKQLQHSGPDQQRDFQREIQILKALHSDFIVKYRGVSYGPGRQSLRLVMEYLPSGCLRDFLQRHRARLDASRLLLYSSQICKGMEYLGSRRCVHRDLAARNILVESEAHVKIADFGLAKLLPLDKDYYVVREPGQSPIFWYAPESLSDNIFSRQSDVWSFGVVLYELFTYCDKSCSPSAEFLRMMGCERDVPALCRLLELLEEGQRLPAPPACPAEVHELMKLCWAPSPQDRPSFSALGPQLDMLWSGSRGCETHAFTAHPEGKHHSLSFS
Briefly: LanthaScreen TR-FRET binding test, JAK3. The conditions noted are these: recombinant JAK3 15 nM, kinase tracer 236 3 nM, 25° C., 1 hour; read-out: Inhibition (IC50) of JAK3 enzyme. Here is the method: FLT3 (#PV3182), JAK2 (#PV4210) and JAK3 (#PV3855) recombinant enzymes were purchased from Life Technologies. FLT3-ITD (#0778-0000-1) and FLT3^D835Y (#14-610) proteins were purchased from ProQinase and Merck Millipore, respectively. All the tests were carried out in 384-well plates. The principle of these binding tests is based on the LanthaScreen® TR-FRET methodology from Life Technologies.
The reaction mixture (15 μL total volume) contains the following compounds: 15 nM JAK2 or JAK3, 150 nM kinase tracer 236 (Life Technologies, #PV5592) for JAK2 or 3 nM for JAK3 and 6 nM LanthaScreen® anti-GST antibody coupled to a europium chelate (Life Technologies, #PV5594) for both enzymes.
The compounds are evaluated at 8 different concentrations prepared by making dilutions from a starting 10 mM stock solution in dimethylsulfoxide (DMSO) (Sigma, #D8418). The final DMSO concentration in the test is 1%. The reaction is carried out at 25° C. for 1 hour and detected on the EnVision® reader (Perkin Elmer) according to the recommendations of the supplier, Life Technologies.
The results are presented (Table 1) as the concentration values of the compound at which 50% of the kinase activity is inhibited, IC50 (μM), generated using the PRISM software (GraphPad).
(In TR-FRET formats the signal depends on donor and acceptor labels being close together.)

On to `CN1CCN(c2ccc3cc2OCCOCCOc2ccc4c(c2)-c2nc(ncc2CC4)N3)CC1` [Compound 3], for which the EC50 in experiment [1] came to 5.6 nM. The IC50 in experiment [2] was 54 nM.

Regarding `c1cc(N2CCNCC2)c2cc1Nc1ncc3c(n1)-c1cc(ccc1CC3)OCCOCCO2` [Compound 5], in experiment [1], the EC50 was 1.8 nM. Further, the IC50 in experiment [2] amounted to 30 nM.

`c1cc(N2CCC(N3CCOCC3)C2)c2cc1Nc1ncc3c(n1)-c1cc(ccc1CC3)OCCOCCO2` (stereo not drawn) [Compound 7]: in experiment [1], the EC50 was 34 nM. The concentration for half-maximal inhibition (IC50) in experiment [2] was found to be 120 nM.

Consider `c1cc(N2CCC(N3CCCCC3)CC2)c2cc1Nc1ncc3c(n1)-c1cc(ccc1CC3)OCCOCCO2` [Compound 10], for which the EC50 in experiment [1] is 6 nM. Besides, the IC50 in experiment [2] was determined as 60 nM.

Regarding `c1cc(OCCN2CCCC2)c2cc1Nc1ncc3c(n1)-c1cc(ccc1CC3)OCCOCCO2` [Compound 14], the EC50 in experiment [1] is 4.5 nM. For the same molecule, the 50% inhibitory concentration (IC50) in experiment [2] was 70 nM.

For `OC1CCN(c2ccc3cc2OCCOCCOc2ccc4c(c2)-c2nc(ncc2CC4)N3)CC1` [Compound 19], the EC50 in experiment [1] is 13.4 nM. The IC50 in experiment [2] came to 30 nM.

As to `CN1CC=C(c2ccc3cc2OCCOCCOc2ccc4c(c2)-c2nc(ncc2CC4)N3)CC1` [Compound 23], in experiment [1], the EC50 worked out at 6.6 nM. Also, the 50% inhibitory concentration (IC50) in experiment [2] came to 110 nM.

For the molecule `c1cc(N2CC3CNCC3C2)c2cc1Nc1ncc3c(n1)-c1cc(ccc1CC3)OCCOCCO2` (stereo not drawn) [Compound 29], in experiment [1], the EC50 was determined as 15 nM. The half-inhibitory concentration (IC50) in experiment [2] stood at 18 nM.

For `CN(C)C1CCN(c2ccc3cc2OCCOCCOc2ccc4c(c2)-c2nc(ncc2CC4)N3)C1` (stereo not drawn) [Compound 30], in experiment [1], the EC50 turned out to be 15 nM. Besides, the IC50 in experiment [2] turned out to be 18 nM.

As to `CN1CCN(c2ccc3cc2OCCOCCOc2ccc4c(c2)-c2nc(ncc2CC4)N3)CC1(C)C` [Compound 40], the 50% effective concentration (EC50) in experiment [1] was found to be 20 nM. For the same molecule, in experiment [2], the half-maximal inhibitory concentration (IC50) stood at 17.6 nM.

For `c1cc(N2CC3CCC(C2)N3)c2cc1Nc1ncc3c(n1)-c1cc(ccc1CC3)OCCOCCO2` [Compound 42], the EC50 in experiment [1] stood at 7 nM. Besides, in experiment [2], the IC50 was found to be 13 nM.

For `c1cc(N2C[C@H]3C[C@@H]2CN3)c2cc1Nc1ncc3c(n1)-c1cc(ccc1CC3)OCCOCCO2` [Compound 44], the concentration giving a half-maximal response (EC50) in experiment [1] worked out at 8.8 nM. In experiment [2], the IC50 was found to be 35 nM.
